We go through 33 compounds from patent US20100029643A1 (ASTRAZENECA AB, priority 2006, published 2010).

This experiment concerns the target T1, Edg-1/S1P1 receptor (Homo sapiens, UniProt P21453).
T1 construct: expressed in transfected cells; host or cells: human osteogenic sarcoma U2OS cells: Edg-1 Transfluor U2OS WT Clone #37 (assay I), Edg-1 Transfluor U2OS Clone #3 (assay II)
Put plainly: In vitro cell based receptor activation assay - Transfluor assay (assay I or II; beta-arrestin GFP relocalization after S1P stimulation). The settings on record: for inhibition at 3.5 µM: at 3.50 μM (titrated from top concentration 10 μM). Put shortly: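 U2OS cells overexpressing S1P1 with a beta-arrestin-GFP construct were pre-incubated with compound for 15 min at room temperature, then stimulated with S1P for 45 min at 37 °C. In assay I, final S1P was 375 nM or 750 nM and compound was a 9-point 3-fold series from 100 μM, in 1% DMSO. Cells were fixed and Hoechst-stained, GFP relocalization was imaged, and EC50 values were fitted.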

Setting [1] is: at 3.70 μM (titrated from top concentration 100 μM).

T1 sequence (P21453 whole entry): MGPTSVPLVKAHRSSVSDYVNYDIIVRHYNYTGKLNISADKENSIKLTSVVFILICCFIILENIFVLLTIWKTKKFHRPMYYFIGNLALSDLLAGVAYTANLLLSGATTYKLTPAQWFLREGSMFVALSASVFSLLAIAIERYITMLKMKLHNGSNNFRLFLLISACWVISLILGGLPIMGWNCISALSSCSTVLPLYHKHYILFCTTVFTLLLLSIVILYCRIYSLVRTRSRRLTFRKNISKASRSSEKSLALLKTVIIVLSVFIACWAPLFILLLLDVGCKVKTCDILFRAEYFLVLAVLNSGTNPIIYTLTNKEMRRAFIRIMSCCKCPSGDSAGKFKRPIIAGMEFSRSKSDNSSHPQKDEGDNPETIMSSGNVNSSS

By inhibition is commonly meant the share of the control response that was lost under treatment. Read a high inhibition as a response far below the control. `CCn1c([C@@H](C)NS(=O)(=O)c2ccc3c(c2)OCCN3C)nc2ccc(C(F)(F)F)cc21` [Example 43, N-{(1R)-1-[1-Ethyl-6-(trifluoromethyl)-1H-benzimidazol-2-yl]ethyl}-4-methyl-3,4-dihydro-2H-1,4-benzoxamide-7-sulfonamide] gave an inhibition at 3.5 µM of 93.3%.
`CCOC(=O)c1ccc2nc([C@@H](C)NS(=O)(=O)c3ccc(Cl)cc3)n(CC)c2c1` (stereo in doubt) [Example 67, Ethyl 2-(1-{[(4-chlorophenyl)sulfonyl]amino}-ethyl)-1-ethyl-1H-benzimidazole-6-carboxylate] displayed an inhibition at 3.7 µM under setting [1] of 91.3%.
In the case of `CCn1c(C(C)NS(=O)(=O)c2ccc(Cl)cc2)nc2ccc(C(F)(F)F)cc21` (stereo not drawn) [Example 99, 4-Chloro-N-{1-[1-ethyl-6-(trifluoromethyl)-1H-benzimidazol-2-yl]ethyl}benzenesulfonamide], the inhibition at 3.7 µM under setting [1] was 94.5%.
Under setting [1], `CCn1c(C(C)NS(=O)(=O)c2ccc(Cl)cc2)nc2ccncc21` (stereo not drawn) [Example 14, 4-Chloro-N-[1-(3-ethyl-3H-imidazo[4,5-c]pyridin-2-yl)ethyl] benzene sulfonamide] gave an inhibition at 3.7 µM of 72.8%.
On the same count and under the same terms, under `CCn1c(C(C)NS(=O)(=O)c2ccc(Cl)cc2)nc2ccc(Cl)cc21` (stereo not drawn) [Example 10, 4-Chloro-N-[1-(6-chloro-1-ethyl-1H-benzimidazol-2-yl)ethyl]benzenesulfonamide] stands 89.9%.
In turn, `CCn1c([C@@H](C)NS(=O)(=O)c2ccc(Cl)cc2)nc2cc(OC)c(OC)cc21` [Example 61, 4-Chloro-N-[(1R)-1-(1-ethyl-5,6-dimethoxy-1H-benzimidazol-2-yl)ethyl]benzenesulfonamide] showed an inhibition at 3.7 µM under setting [1] of 54.9%.
In the case of `CCn1cc(S(=O)(=O)N[C@H](C)c2nc3ccc(C(F)(F)F)cc3n2CC)cn1` [Example 121, 1-ethyl-N-{(1R)-1-[1-Ethyl-6-(trifluoromethyl)-1H-benzimidazol-2-yl]ethyl}-1H-pyrazole-4-sulfonamide], at 3.3 µM the inhibition (at 3.30 μM (run with this as top concentration)) was 74%.
On to “4-Chloro-N-{1-[1-ethyl-6-(methylsulfonyl)-1H-benzimidazol-2-yl]ethyl}benzenesulfonamide [Example 80]”, for which the “% inhibition” value under setting [1] is “[drawing 92] 4-Chloro-N-{1-[1-ethyl-6- (methylsulfonyl)-1H- benzimidazol-2-yl]ethyl}benzenesulfonamide (22.57% inhibition at 3.70 μM)”.
With `CCn1c([C@@H](C)NS(=O)(=O)c2ccc(Cl)cc2)nc2c(F)cccc21` [Example 90, 4-Chloro-N-[(1R)-1-(1-ethyl-4-fluoro-1H-benzimidazol-2-yl)ethyl]benzenesulfonamide], at 3.5 µM the inhibition was 93.4%.
The compound `CCn1c([C@@H](C)NS(=O)(=O)c2ccc(F)cc2)nc2cnc(OC)cc21` [Example 132, (R)-N-(1-(1-Ethyl-6-methoxy-1H-imidazo[4,5-c]pyridin-2-yl)ethyl)-4-fluorobenzenesulfonamide] gave an inhibition at 3.5 µM of 86.2%.
The compound `CCn1c([C@@H](C)NS(=O)(=O)c2ccccn2)nc2ccc(C(F)(F)F)cc21` [Example 125, N-{(1R)-1-[1-Ethyl-6-(trifluoromethyl)-1H-benzimidazol-2-yl]ethyl}pyridine-2-sulfonamide] came in with an inhibition at 3.5 µM of 14.9%.
In the case of `CCn1c(C(Cc2cccnc2)NS(=O)(=O)c2ccc(Cl)cc2)nc2ccccc21` (stereo not drawn) [Example 7, 4-Chloro-N-[1-(1-ethyl-1H-benzimidazol-2-yl)-2-pyridin-3-yl-ethyl]benzene-sulfonamide], 3.7 µM produced 79.7% inhibition under setting [1].
As to `CCn1c([C@@H](C)NS(=O)(=O)c2ccc(OC(C)C)cc2)nc2ccc(C(F)(F)F)cc21` [Example 156], the inhibition at 3.5 µM came out at 80.7%.
Turning to `CCn1c([C@@H](C)NS(=O)(=O)c2ccc(Cl)c3cccnc23)nc2ccc(C(F)(F)F)cc21` [Example 52, 5-Chloro-N-{(1R)-1-[1-ethyl-6-(trifluoromethyl)-1H-benzimidazol-2-yl]ethyl}-quinoline-8-sulfonamide], under setting [1], 3.7 µM produced 89% inhibition.
`CCn1c([C@@H](C)NS(=O)(=O)c2ccc(Cl)cc2)nc2cc(F)c(Cl)cc21` [Example 56, 4-Chloro-N-[(1R)-1-(6-chloro-1-ethyl-5-fluoro-1H-benzimidazol-2-yl)ethyl]benzenesulfonamide]: the inhibition at 3.5 µM came out at 96%.
On to `CCn1c([C@@H](C)NS(=O)(=O)c2ccc(Cl)cc2)nc2cc(Cl)cc(Cl)c21` [Example 58, 4-Chloro-N-[(1R)-1-(5,7-dichloro-1-ethyl-1H-benzimidazol-2-yl)ethyl]benzenesulfonamide], for which at 3.7 µM the inhibition under setting [1] was 78.2%.
For `CCn1c(C(C)(C)NS(=O)(=O)c2ccc(Cl)cc2)nc2ccccc21` [Example 16, 4-Chloro-N-[1-(1-ethyl-1H-benzoimidazol-2-yl)-1-methyl-ethyl]-benzenesulfonamide], the inhibition at 3.5 µM is 96.2%.
`CCn1c(C(C)(C)NS(=O)(=O)c2ccc(F)cc2)nc2ccc(C(F)(F)F)cc21` [Example 137, N-[1-(1-Ethyl-6-trifluoromethyl-1H-benzoimidazol-2-yl)-1-methyl-ethyl]-4-fluoro-benzenesulfonamide]: the inhibition at 3.5 µM amounted to 88.8%.
For `CCn1c([C@@H](C)NS(=O)(=O)c2ccc(Cl)cc2)nc2cc(CO)ccc21` [Example 78, 4-Chloro-N-{(1R)-1-[1-ethyl-5-(hydroxymethyl)-1H-benzimidazol-2-yl]ethyl}benzenesulfonamide], the inhibition at 3.7 µM under setting [1] is 58.4%.
`CCn1c([C@@H](C)NS(=O)(=O)c2ccc(CC(C)C)cc2)nc2ccc(C(F)(F)F)cc21` [Example 116, N-{(1R)-1-[1-Ethyl-6-(trifluoromethyl)-1H-benzimidazol-2-yl]ethyl}-4-isobutylbenzenesulfonamide] returned an inhibition at 3.5 µM of 64.1%.
Still for that read-out and setting: as for `CCn1c([C@@H](C)NS(=O)(=O)c2ccc(Cl)cc2)nc2ccc(C(F)(F)F)cc21` [Example 9, 4-Chloro-N-{(1R)-1-[1-ethyl-6-(trifluoromethyl)-1H-benzimidazol-2-yl]ethyl} benzene-sulfonamide], the figure is 84.8%; as for `CCn1c(C2(NS(=O)(=O)c3ccc(Cl)cc3)CC2)nc2ccc(C(F)(F)F)cc21` [Example 142, 4-Chloro-N-{1-[1-ethyl-6-(trifluoromethyl)-1H-benzimidazol-2-yl]cyclopropyl}benzenesulfon amide], 80.5%; as for `CCn1c([C@@H](C)NS(=O)(=O)c2ccncc2)nc2ccc(C(F)(F)F)cc21` [Example 127, (R)-N-(1-(1-Ethyl-6-(trifluoromethyl)-1H-benzo[d]imidazol-2-yl)ethyl)pyridine-4-sulfonamide], 86.4%.
The compound `CCCn1ncc(S(=O)(=O)N[C@H](C)c2nc3ccc(C(F)(F)F)cc3n2CC)c1C` [Example 54, N-{(1R)-1-[1-Ethyl-6-(trifluoromethyl)-1H-benzimidazol-2-yl]ethyl}-5-methyl-1-propyl-1H-pyrazole-4-sulfonamide] yielded an inhibition at 3.7 µM under setting [1] of 77.5%.
`CCn1c([C@@H](C)NS(=O)(=O)c2cccs2)nc2ccc(C(F)(F)F)cc21` [Example 39, N-{(1R)-1-[1-Ethyl-6-(trifluoromethyl)-1H-benzimidazol-2-yl]ethyl}thiophene-2-sulfonamide] showed an inhibition at 3.5 µM of 92.5%.
The same measure, in the same setting: as for `CCn1c([C@@H](C)NS(=O)(=O)c2ccc(Cl)cc2)nc2ccc(CO)cc21` (stereo in doubt) [Example 68, 4-Chloro-N-{1-[1-ethyl-6-(hydroxymethyl)-1H-benzimidazol-2-yl]ethyl}benzenesulfonamide], the figure is 94.4%.
Regarding `CCn1c(C(C)(C)NS(=O)(=O)c2ccc(C#N)cc2)nc2cnc(C3CC3)cc21` [Example 185, 4-Cyano-N-[1-(6-cyclopropyl-1-ethyl-1H-imidazo[4,5-c]pyridin-2-yl)-1-methyl-ethyl]-benzenesulfonamide], the inhibition at 3.5 µM turned out to be 65%.
Same read-out and setting: under `CCn1c(C(C)NS(=O)(=O)c2ccc(N)nc2)nc2ccc(C(F)(F)F)cc21` (stereo not drawn) [Example 170, 6-amino-N-(1-(1-ethyl-6-(trifluoromethyl)-1H-benzo[d]imidazol-2-yl)ethyl)pyridine-3-sulfonamide] stands 83.1%.
As to `CCn1c([C@@H](C)NS(=O)(=O)c2cnc(NC(C)=O)s2)nc2ccc(C(F)(F)F)cc21` [Example 36, N-{5-[({(1R)-1-[1-Ethyl-6-(trifluoromethyl)-1H-benzimidazol-2-yl]ethyl}amino)sulfonyl]-1,3-thiazol-2-yl}acetamide], under setting [1], testing at 3.7 µM gave an inhibition of 49%.
For `CCn1c(C(C)(C)NS(=O)(=O)c2ccc(F)cc2)nc2cnc(C3CC3)cc21` [Example 186, 4-Fluoro-N-[1-(6-cyclopropyl-1-ethyl-1H-imidazo[4,5-c]pyridin-2-yl)-1-methyl-ethyl]-benzenesulfonamide], the inhibition at 3.5 µM came out at 56.5%.
Compound `CCn1c([C@@H](C)NS(=O)(=O)c2ccc(Cl)cc2)nc2ccc(C(=O)N3CCOCC3)cc21` (stereo in doubt) [Example 73, 4-Chloro-N-{1-[1-ethyl-6-(morpholin-4-ylcarbonyl)-1H-benzimidazol-2-yl]ethyl}benzenesulfonamide] had an inhibition at 3.7 µM under setting [1] of 8.88%.
`CCn1c([C@@H](C)NS(=O)(=O)c2cnc(NN)c(Cl)c2)nc2ccc(C(F)(F)F)cc21` [Example 128, R-5-chloro-N-(1-(1-ethyl-6-(trifluoromethyl)-1H-benzo[d]imidazol-2-yl)ethyl)-6-hydrazinylpyridine-3-sulfonamide]: at 3.5 µM the inhibition was 94.5%.
In turn, `C#Cc1ccc(S(=O)(=O)N[C@H](C)c2nc3ccc(C(F)(F)F)cc3n2CC)cn1` [Example 133, (R)-N-(1-(1-Ethyl-6-(trifluoromethyl)-1H-benzo[d]imidazol-2-yl)ethyl)-6-ethynylpyridine-3-sulfonamide] showed an inhibition at 3.5 µM of 86.4%.
